We go through 17 compounds from patent US9073892B2, “Indazolyl triazol derivatives” (Merck Serono S.A., priority 2010, dated 2015).

pIC50: −log10 of the molar value. Counter-ions that a name gives are not always drawn.

Series [1] has as its system IL1β-induced IL8 release in THP1 cells. Description: IRAK IL8 secretion functional assay. As to conditions: Homo sapiens; THP-1 cells, IL1β 100 ng/ml overnight, IL8 by HTRF; read-out: IC50, Secretion THP-1/IL-β induced IL8 release. The class given is cell-based. Put shortly:
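THP-1 cells (30,000/well, RPMI 1640) were incubated overnight at 37 °C, 5% CO2 with compound (20 μM to 1 nM) plus IL1β at 100 ng/ml final. IL-8 in the supernatant was measured by HTRF with europium cryptate- and XL665-labelled anti-IL8 antibodies, read after 3 h at 30 °C.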
Background: Time-resolved FRET reads energy transfer from a long-lived donor to a nearby acceptor.

For the next series, the system named is T1, IRAK1/4 human.
T1 construct: fused on or other part: His tag and TEV cleavage site at the N-terminus
Nature of the series: IRAK1/4 phosphorylation IC50 (enzymatic assay, table 2). The class given is biochemical. As to conditions: human IRAK1/4 phosphorylation. Put shortly: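 In 384-well plates, reactions in 50 mM Hepes pH7.0 buffer with MgCl2, DTT, EGTA and BSA combined ATP, compounds in DMSO at 20 µM to 1 nM, and either His-TEV-tagged human IRAK-1 or His-TEV-tagged human IRAK-4 plus STK1-biotin peptide. They ran for 2 or 3 hours alongside 2% DMSO controls. Each value is an IC50 for inhibition.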

Series [2] deals with IL-6 secretion in human PBMC. Nature of the series: IRAK IL-6 secretion functional assay in human PBMC. The series is classed as cell-based. The note with it: preincubated 1 h with test article, stimulated with 10 ng/ml IL1, 18-20 h, ELISA. The procedure: IRAK IL-6 Secretion Functional Assay in Human PBMC
Human PBMCs from healthy volunteers were purified from buffy coats of heparinized whole blood by density centrifugation on Ficoll-Hypaque. Isolated PBMCs were washed twice in PBS, counted, and seeded at a density of 7×10^4 cells/well in 180 µl of complete RPMI 1640 medium containing 10% heat-inactivated FBS. PBMC were preincubated for 1 h with serial dilutions of test article dissolved in DMSO (final DMSO concentration 0.33%) at 37° C. in a 5% CO2 incubator. PBMC were then stimulated with 10 ng/ml of IL1-(final volume […]) and incubation was continued for 18-20 h. The supernatants were collected and IL-6 was quantified using the Duo-set ELISA kit (R&D Systems) following manufacturer's instructions
In general terms: An ELISA detects its analyte on a solid surface through an enzyme-linked reagent.

The next series has as its system LPS-induced TNFα release. Nature of the series: LPS-induced cytokine release in mice (TNFα). The class given is in vivo. As to conditions: female C57B6 mice; for inhibition of LPS-induced TNFα release in mice: 30 min before LPS 1 mg/kg i.p., serum 2 hours after LPS. The procedure: (§1) LPS-Induced Cytokine Release in Mice
(§2) Female C57B6 mice (8-10 weeks 4-6 mice/group) were dosed p.o. with vehicle (40% Kleptose in water), reference compound dexamethasone (1 mg/kg) or three different doses of compound 1 (10, 30 and 60 mg/kg at 10 mL/kg). 30 minutes after compound administrations mice were injected i.p. with LPS (0111:B4, 1 mg/kg). 2 hours after LPS injection mice were sacrificed. Serum was collected; cytokine levels (TNF-α and IL-6) were detected by ELISA or OBA.

Another series relates to LPS-induced IL-6 release. Description: LPS-induced cytokine release in mice (IL-6). The series is classed as in vivo. The note with it: female C57B6 mice; for inhibition of LPS-induced IL-6 release in mice: 30 min before LPS 1 mg/kg i.p., serum 2 hours after LPS. The procedure: as §1, §2

In the case of `Cc1ccc2[nH]nc(-c3cn(-c4ccc(CN5CCOCC5)cc4)nn3)c2c1` [Example 7, 5-methyl-3-{1-[4-(morpholin-4-ylmethyl)phenyl]-1H-1,2,3-triazol-4-yl}-1H-indazole], the pIC50 in series [1] is 6.00 to 7.00; in the series with IRAK1/4 human it was 6.00 to 7.00; in series [2], 5.70 to 6.70.

On to `O=C(c1ccc(-n2cc(-c3n[nH]c4ccccc34)nn2)cc1)N1CCOCC1` [Example 1, 3-{1-[4-(morpholin-4-ylcarbonyl)phenyl]-1H-1,2,3-triazol-4-yl}-1H-indazole], for which, in the series on LPS-induced TNFα release (10, 30 and 60 mg/kg p.o.), the “LPS-induced TNFα release in mice (result in words)” value is on record as “inhibits dose dependently”. Further, the “inhibition of LPS-induced TNFα release in mice” value stood at 36% INH in the series on LPS-induced TNFα release (10 mpk po), 43% INH in the series with LPS-induced TNFα release (30 mpk po) and 61% INH in the series with LPS-induced TNFα release (60 mpk po). Moreover, the pIC50 in series [1] is 6.00 to 7.00; in the series on IRAK1/4 human, 6.00 to 7.00; in series [2], 5.70 to 6.70. Besides, the “LPS-induced IL-6 release in mice (result in words)” value in the series with LPS-induced IL-6 release (10, 30 and 60 mg/kg p.o.) is listed as “inhibits dose dependently”. The results for the “inhibition of LPS-induced IL-6 release in mice” value in the series with LPS-induced IL-6 release (10 mpk po), in the series with LPS-induced IL-6 release (30 mpk po) and in the series on LPS-induced IL-6 release (60 mpk po) were 9% INH, 25% INH and 66% INH, respectively.

Regarding `O=C(c1ccc(-n2cc(-c3n[nH]c4ccccc34)nn2)cc1)N1CCCC(CN2CCCC2)C1` (stereo not drawn) [Example 2, 3-[1-(4-{[3-(pyrrolidin-1-ylmethyl)piperidin-1-yl]carbonyl}phenyl)-1H-1,2,3-triazol-4-yl]-1H-indazole], the pIC50 was above 7.00 in series [1], above 7.00 in the series on IRAK1/4 human and 5.70 to 6.70 in series [2].

In the case of `O=C(c1ccc(-n2cc(-c3n[nH]c4ccccc34)nn2)cc1)N1CCCC(CO)C1` (stereo not drawn) [Example 33], the pIC50 in series [1] is 6.00 to 7.00; in the series on IRAK1/4 human, above 7.00; in series [2], above 6.70.

For `CN1C2CCC1CC(n1cc(NC(=O)c3ccc(-n4cc(-c5n[nH]c6ccccc56)nn4)cc3)cn1)C2` (stereo not drawn) [Example 125, 4-[4-(1H-indazol-3-yl)-1H-1,2,3-triazol-1-yl]-N-[1-(8-methyl-8-azabicyclo[3.2.1]oct-3-yl)-1H-pyrazol-4-yl]benzamide], the pIC50 in series [1] was 6.00 to 7.00; with IRAK1/4 human, above 7.00; in series [2] it was 5.70 to 6.70.

In the case of `O=C(NC1CCCNC1)c1ccc2[nH]nc(-c3cn(-c4ccc(CN5CCOCC5)cc4)nn3)c2c1` (stereo not drawn) [Example 238], the pIC50 is above 7.00 in the series with IRAK1/4 human and above 6.70 in series [2].

For the compound `CN1[C@@H]2CC[C@H]1C[C@@H](c1ccc(-n3cc(-c4n[nH]c5ccccc45)nn3)cc1)C2` [Example 251], the pIC50 with IRAK1/4 human is 6.00 to 7.00; in series [2], 5.70 to 6.70.

Take `Cc1ccc2c(-c3cn(-c4cnn(C5CC6CCC(C5)N6C)c4)nn3)n[nH]c2c1` (stereo not drawn) [Example 224]: the results for the pIC50 (in the series on IRAK1/4 human; in series [2]) were above 7.00 and 5.70 to 6.70, respectively.

For `c1ccc2c(-c3cn(-c4ccc(CN5CCOCC5)cc4)nn3)n[nH]c2c1` [Example 188], the pIC50 is 6.00 to 7.00 in the series on IRAK1/4 human and 5.70 to 6.70 in series [2].

As for `c1ccc2c(-c3cn(-c4ccc(CN5C[C@@H]6C[C@H]5CO6)cc4)nn3)n[nH]c2c1` [Example 145, 3-(1-{4[(1S,4S)-2-oxa-5-azabicyclo[2.2.1]hept-5-ylmethyl]phenyl}-1H-1,2,3-triazol-4-yl)-1H-indazole], the pIC50 with IRAK1/4 human was 6.00 to 7.00; in series [2], 5.70 to 6.70.

Regarding `C[C@@H]1C[C@H]2[C@@H]3CCC4=CC(=O)C=C[C@]4(C)[C@@]3(F)[C@@H](O)C[C@]2(C)[C@@]1(O)C(=O)CO` [dexamethasone, reference compound], the “inhibition of LPS-induced TNFα release in mice” value with LPS-induced TNFα release (1 mpk po) is 97% INH. For the same compound, the “inhibition of LPS-induced IL-6 release in mice” value in the series on LPS-induced IL-6 release (1 mpk po) was 83% INH.

For the compound `O=C(c1ccc(-n2cc(-c3n[nH]c4ccc(C5CCCNC5)cc34)nn2)cc1)N1CCOCC1` (stereo not drawn) [Example 204], the pIC50 in the series on IRAK1/4 human is above 7.00; in series [2], 5.70 to 6.70.

`Cc1ccc2c(-c3cn(-c4ccc(C5CCNCC5)cc4)nn3)n[nH]c2c1` (as salt: HCl) [Example 265]: the melting point turned out to be 303 °C.

`O=C(c1ccc(-n2cc(-c3n[nH]c4cc(-c5cccnc5)ccc34)nn2)cc1)N1CCOCC1` [Example 210]: the results for the pIC50 (with IRAK1/4 human; in series [2]) were 6.00 to 7.00 and 5.70 to 6.70, respectively.

Regarding `c1ccc2c(-c3cn(-c4ccc(C5CCNCC5)cc4)nn3)n[nH]c2c1` [Example 132, 3-[1-(4-piperidin-4-ylphenyl)-1H-1,2,3-triazol-4-yl]-1H-indazole hydrochloride], the pIC50 with IRAK1/4 human is 6.00 to 7.00; in series [2], 5.70 to 6.70.

Consider `O=C(c1ccc(-n2cc(-c3n[nH]c4ccccc34)nn2)cc1)N1CCCC(O)C1` (stereo not drawn) [Example 30], for which the pIC50 in series [1] was 6.00 to 7.00; in the series with IRAK1/4 human it was 6.00 to 7.00; in series [2], 5.70 to 6.70.

For `CN1CCC(c2ccc3[nH]nc(-c4cn(-c5ccc(C(=O)N6CCOCC6)cc5)nn4)c3c2)CC1` [Example 124, 5-(1-methylpiperidin-4-yl)-3-{1-[4-(morpholin-4-ylcarbonyl)phenyl]-1H-1,2,3-triazol-4-yl}-1H-indazole], the pIC50 in series [1] was 6.00 to 7.00; in the series on IRAK1/4 human, above 7.00; in series [2], above 6.70.

Usually melting point stands for the temperature, or range, at which the solid turns liquid.
